The target in assay [1] is T1, LpThi5 (LpThi5-His6; Lpg1565) (Legionella pneumophila, UniProt Q5ZV75).
Assay [2] has as its target T1, LpThi5 (LpThi5-His6; Lpg1565). The source holds these as a separate data set.

T1 sequence (Q5ZV75 whole entry, looked up): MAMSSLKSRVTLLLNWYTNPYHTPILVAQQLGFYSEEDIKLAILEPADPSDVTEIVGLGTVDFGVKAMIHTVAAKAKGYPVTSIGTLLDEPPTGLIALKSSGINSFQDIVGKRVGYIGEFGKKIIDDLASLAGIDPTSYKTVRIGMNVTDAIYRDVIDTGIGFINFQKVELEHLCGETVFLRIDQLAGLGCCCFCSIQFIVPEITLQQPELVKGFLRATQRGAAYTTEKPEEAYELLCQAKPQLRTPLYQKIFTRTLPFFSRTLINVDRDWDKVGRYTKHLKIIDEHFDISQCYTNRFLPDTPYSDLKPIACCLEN

As for `Cc1ncc(CO)c(N)n1` [HMP, 2-methyl-4-amino-5-hydroxymethylpyrimidine], in assay [1], the “bioassay, HPLC and MALDI-TOF MS of released product” value is “MALDI-TOF MS identified the active molecule as HMP”.
In assay [2], `Cc1ncc(COP(=O)(O)O)c(C=O)c1O` [PLP, pyridoxal-5’-phosphate] yielded a PLP occupancy of 63 ± 2%.
